PMC8395335, “Serotonergic–Muscarinic Interaction within the Prefrontal Cortex as a Novel Target to Reverse Schizophrenia-Related Cognitive Symptoms” (International Journal of Molecular Sciences, 2021)

Tests used:
MK-801-treated mice [1] = assay: Novel object recognition (NOR) test, MK-801-induced deficits; format: in vivo; details: for Reversal of MK-801-induced disruptions in NOR test by combined administration: 7 days; for Effect of combined administration on MK-801-induced memory deficits in the NOR test: subeffective doses; for Effect of top dose on MK-801-induced deficits in the NOR test: 5 mg/kg i.p., alone
Procedure: (§1) Drugs were administered on two different schedules: (1) acute administration of compounds 45 min (WAY100635—5-HT1A antagonist) or 30 min (VU0357017, VU152100, VU0238429, and F15599) before MK-801 (also administered once 30 min before the test in Y-maze or T1 in NOR test); and (2) prolonged administration (once per day for 7 consecutive days) of the compounds and MK-801 with the last administration 24 h before the test (NOR test) or at the day of the test (Y-maze). […] Schedules of administration are presented graphically in Figure 2. The subeffective doses of the compounds for acute administration in the NOR test were chosen based on our previous research (see: [22, 23]) while dose-dependent studies of the activity of the compounds in reversing disruptions in the Y-maze or after prolonged administration along with MK-801 were performed within this study. Different vehicles were used throughout the study: (1) 0.9% NaCl and (2) 10% Tween 80. Vehicles were administered to all animals (e.g., control mice and MK-801-treated mice) on the same schedule as drugs were administered to the appropriate drug-treated groups of mice. Neither solvent exerted effects on animal behavior.
(§2) Male Albino Swiss mice (Charles River, Sulzfeld, Germany) weighing 20–25 g at the beginning of the experiments were used in the studies. The animals were housed in a room with a 12:12 h light-dark cycle at a temperature of 22 ± 1 °C with food and water available ad libitum. The experimental groups consisted of 8–10 animals. All drugs were administered intraperitoneally (i.p.) at a volume of 10 mL/kg. The behavioral experiments were performed by an observer who was blinded to the treatment. The procedures were conducted in accordance with the European Communities Council Directive of 22 September 2010 (2010/63/EU) and Polish legislation acts concerning animal experimentation and were approved by the II Local Ethics Committee by the Maj Institute of Pharmacology, Polish Academy of Sciences in Krakow (15/2020, 240/2020).
(§3) In acute experiments, the tested compounds (alone or in combination) were administered 30 min before MK-801 (0.3 mg/kg), which was administered 30 min before the test or training trial (T1) in the NOR test. In chronic experiments, the tested compounds (alone or in combination) and MK-801 were administered for seven days. Behavioral tests were performed on the eighth day.
The NOR test was performed as described previously. Briefly, the habituation, training and test trial were carried out in a dark room in a black, plastic rectangular arena illuminated with a 355 lux bulb. During the habituation trial, the animals were allowed to explore the arena in the absence of objects (10 min/day for 2 days). The next day, the training (T1) and test (T2) trials were performed. Throughout T1, mice were allowed to freely explore two identical objects (5 min), one of which was subsequently replaced by a novel object in T2 (1 h later, 5 min of exploration). Time spent exploring (i.e., sniffing or touching) the familiar (Tfamiliar) or novel object (Tnovel) was measured by a trained observer, and then the recognition index was calculated for each mouse [(Tnovel − Tfamiliar)/(Tfamiliar + Tnovel)] × 100.

MK-801-treated mice [2] = assay: Y-maze test (spontaneous alternations), MK-801-induced deficits; format: in vivo; details: for Reversal of MK-801-induced disruptions in Y-maze by combined administration: 7 days; for Effect of combined administration on spontaneous alternations in the Y-maze test: MK-801-treated
Procedure: as §1, §2, §3
The Y-maze was performed using the methods described by Miedel et al. and Kraeuter et al. with minor modifications. A black, wooden Y-shaped apparatus with equal length arms (labeled A, B, or C) spaced 120 apart was used in the behavioral experiment. Visual clues were placed inside the maze and mounted to the back wall of each arm. The experiment was performed in a well-lit room. The mice were placed in the same starting arm and were allowed to freely explore the maze for 8 min. After each trial, the maze was wiped clean. The sequence and the number of arm entries were recorded to calculate the percentage of spontaneous alternations using the following formula: [(Number of alternations)/(Total arm entries − 2)] × 100. An arm entry was scored if the animal entered the arm with all paws. Consecutive entries into three distinct arms were scored as an alternation (e.g., ACB, but not ACA) in which sequences could overlap (e.g., ACBACABAC represents […] alternations).

[3] = F15599 0.05 mg/kg with VU0238429 1 mg/kg (subeffective doses)
[4] = F15599 0.05 mg/kg with VU0357017 0.15 mg/kg (subeffective doses)
[5] = F15599 0.025 mg/kg with VU0238429 1 mg/kg (subeffective doses)
[6] = F15599 0.025 mg/kg with VU0357017 1 mg/kg (subeffective doses)
[7] = acute, F15599 0.1 mg/kg with VU0238429 5 mg/kg
[8] = acute, F15599 0.1 mg/kg with VU0357017 10 mg/kg

| Structure (SMILES) | Reversal of MK-801-induced disruptions in NOR test by combined administration (MK-801-treated mice [1]; [3]) | Reversal of MK-801-induced disruptions in NOR test by combined administration (MK-801-treated mice [1]; [4]) | Effect of combined administration on MK-801-induced memory deficits in the NOR test (MK-801-treated mice [1]; acute, F15599 with VU0238429) | Effect of combined administration on MK-801-induced memory deficits in the NOR test (MK-801-treated mice [1]; acute, F15599 with VU0357017) | Reversal of MK-801-induced disruptions in Y-maze by combined administration (MK-801-treated mice [2]; [5]) | Reversal of MK-801-induced disruptions in Y-maze by combined administration (MK-801-treated mice [2]; [6]) | Effect of combined administration on spontaneous alternations in the Y-maze test (MK-801-treated mice [2]; [7]) | Effect of combined administration on spontaneous alternations in the Y-maze test (MK-801-treated mice [2]; [8]) | Effect of top dose on MK-801-induced deficits in the NOR test (MK-801-treated mice [1]; acute) | Reversal of MK-801-induced reduction in spontaneous alternations in the Y-maze (MK-801-treated mice [2]; 7 days with MK-801, 0.5 mg/kg) | Reversal of MK-801-induced reduction in spontaneous alternations in the Y-maze (MK-801-treated mice [2]; 7 days with MK-801, 1 mg/kg) | Reversal of MK-801-induced reduction in spontaneous alternations in the Y-maze (MK-801-treated mice [2]; 7 days with MK-801, 5 mg/kg) | further results |
| --- | --- | --- | --- | --- | --- | --- | --- | --- | --- | --- | --- | --- | --- |
| Cc1cnc(CNCC2(F)CCN(C(=O)c3ccc(F)c(Cl)c3)CC2)nc1 [F15599] | reversed | reversed | no effect | no effect | did not reverse | did not reverse | no effect | no effect | – | – | – | – | Reversal of MK-801-induced deficits in the NOR test (recognition index) (MK-801-treated mice [1]; 7 days with MK-801, 0.025 mg/kg i.p.): ineffective; Reversal of MK-801-induced deficits in the NOR test (recognition index) (MK-801-treated mice [1]; 7 days with MK-801, 0.1 mg/kg i.p.): reversed; Reversal of MK-801-induced disruptions in NOR test by combined administration (MK-801-treated mice [1]; F15599 0.05 mg/kg with VU0152100 0.05 mg/kg (subeffective doses)): reversed; Reversal of MK-801-induced deficits in the NOR test (recognition index) (MK-801-treated mice [1]; acute, 0.05 mg/kg i.p., 30 min before MK-801): ineffective; Reversal of MK-801-induced deficits in the NOR test (recognition index) (MK-801-treated mice [1]; acute, 0.1 mg/kg i.p., 30 min before MK-801 (0.3 mg/kg)): reversed; Reversal of MK-801-induced deficits in the NOR test (recognition index) (MK-801-treated mice [1]; acute, 0.5 mg/kg i.p., 30 min before MK-801): reversed; Effect of combined administration on MK-801-induced memory deficits in the NOR test (MK-801-treated mice [1]; acute, F15599 with VU0152100): no effect; Reversal of MK-801-induced reduction in spontaneous alternations in the Y-maze (MK-801-treated mice [2]; 7 days with MK-801, 0.025 mg/kg): ineffective; Reversal of MK-801-induced reduction in spontaneous alternations in the Y-maze (MK-801-treated mice [2]; 7 days with MK-801, 0.05 mg/kg): ineffective; Reversal of MK-801-induced reduction in spontaneous alternations in the Y-maze (MK-801-treated mice [2]; 7 days with MK-801, 0.1 mg/kg): reversed; Reversal of MK-801-induced disruptions in Y-maze by combined administration (MK-801-treated mice [2]; F15599 0.025 mg/kg with VU0152100 0.05 mg/kg (subeffective doses)): did not reverse; Reversal of MK-801-induced reduction in spontaneous alternations in the Y-maze (MK-801-treated mice [2]; acute, 0.05-0.5 mg/kg i.p.): no efficacy; Effect of combined administration on spontaneous alternations in the Y-maze test (MK-801-treated mice [2]; acute, F15599 0.1 mg/kg with VU0152100 1 mg/kg): no effect |
| COc1ccc(CN2C(=O)C(=O)c3cc(OC(F)(F)F)ccc32)cc1 [VU0238429] | reversed | – | no effect | – | did not reverse | – | no effect | – | pro-cognitive effect | not | not | active | Reversal of MK-801-induced deficits in the NOR test (recognition index) (MK-801-treated mice [1]; 7 days with MK-801, 0.5 mg/kg): ineffective; Reversal of MK-801-induced deficits in the NOR test (recognition index) (MK-801-treated mice [1]; 7 days with MK-801, 1 mg/kg): ineffective; Reversal of MK-801-induced deficits in the NOR test (recognition index) (MK-801-treated mice [1]; 7 days with MK-801, 5 mg/kg): active; Reversal of MK-801-induced reduction in spontaneous alternations in the Y-maze (MK-801-treated mice [2]; acute, 5 mg/kg i.p.): ineffective; Reversal of MK-801-induced reduction in spontaneous alternations in the Y-maze (MK-801-treated mice [2]; acute, 10 mg/kg i.p.): reversed; Reversal of MK-801-induced reduction in spontaneous alternations in the Y-maze (MK-801-treated mice [2]; acute, 20 mg/kg i.p.): reversed |
| CCOC(=O)N1CCC(NCCNC(=O)c2ccccc2C)CC1 [VU0357017] | – | reversed | – | no effect | – | did not reverse | – | no effect | pro-cognitive effect | not | not | activity of VU0357017 was observed | Reversal of MK-801-induced deficits in the NOR test (recognition index) (MK-801-treated mice [1]; 7 days with MK-801, 0.15 mg/kg): ineffective; Reversal of MK-801-induced reduction in spontaneous alternations in the Y-maze (MK-801-treated mice [2]; acute, 1-10 mg/kg i.p.): No efficacy |
